Reference: article PMC12446476 (Nature Communications, 2025)
≈ marks a conversion by molar mass, not a printed value. Read-outs that look alike come from different tables or passages of the source.

System: N. gonorrhoeae
Test: MIC determination, agar dilution (CLSI)
Assay type: cell-based, Neisseria gonorrhoeae
Details: Neisseria gonorrhoeae
Summary of the method: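 For N. gonorrhoeae, WHO 2024 reference strains served as quality control, only whole doubling-dilution MICs were reported, and isolates were classified by EUCAST v14.0 breakpoints or ECOFF. Time-kill assays followed CLSI in Columbia broth with 1% IsoVitaleX, and viable counts came from plating serial dilutions on GC agar with IsoVitaleX.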

Compound: Cc1c(CN(C)C(=O)/C=C/c2cnc3c(c2)N[C@H](C)[C@H](O)C(=O)N3)oc2ccccc12 [Debio 1453]
- MIC (clinical N. gonorrhoeae isolate 67, Sweden 2023, read-out: Minimum inhibitory concentration): 0.032 µg/mL (≈ 0.0761 µM)
- MIC (clinical N. gonorrhoeae isolate 68, Sweden 2023, read-out: Minimum inhibitory concentration): 0.064 µg/mL (≈ 0.152 µM)
- MIC (clinical N. gonorrhoeae isolate 69, Sweden 2023, read-out: Minimum inhibitory concentration): 0.064 µg/mL (≈ 0.152 µM)
- MIC (clinical N. gonorrhoeae isolate 70, Sweden 2023, read-out: Minimum inhibitory concentration): 0.064 µg/mL (≈ 0.152 µM)
- MIC (clinical N. gonorrhoeae isolate 71, Sweden 2023, read-out: Minimum inhibitory concentration): 0.064 µg/mL (≈ 0.152 µM)
- MIC (clinical N. gonorrhoeae isolate 72, Sweden 2023, read-out: Minimum inhibitory concentration): 0.064 µg/mL (≈ 0.152 µM)
- MIC (clinical N. gonorrhoeae isolate 73, Sweden 2023, read-out: Minimum inhibitory concentration): 0.032 µg/mL (≈ 0.0761 µM)
- MIC (clinical N. gonorrhoeae isolate 74, Sweden 2023, read-out: Minimum inhibitory concentration): 0.064 µg/mL (≈ 0.152 µM)
- MIC (clinical N. gonorrhoeae isolate 75, Sweden 2023, read-out: Minimum inhibitory concentration): 0.008 µg/mL (≈ 0.019 µM)
- MIC (clinical N. gonorrhoeae isolate 76, Sweden 2023, read-out: Minimum inhibitory concentration): 0.064 µg/mL (≈ 0.152 µM)
- MIC (clinical N. gonorrhoeae isolate 77, Sweden 2023, read-out: Minimum inhibitory concentration): 0.064 µg/mL (≈ 0.152 µM)
- MIC (clinical N. gonorrhoeae isolate 78, Sweden 2023, read-out: Minimum inhibitory concentration): 0.032 µg/mL (≈ 0.0761 µM)
- MIC (clinical N. gonorrhoeae isolate 79, Sweden 2023, read-out: Minimum inhibitory concentration): 0.032 µg/mL (≈ 0.0761 µM)
- MIC (clinical N. gonorrhoeae isolate 80, Sweden 2023, read-out: Minimum inhibitory concentration): 0.032 µg/mL (≈ 0.0761 µM)
- MIC (clinical N. gonorrhoeae isolate 81, Sweden 2023, read-out: Minimum inhibitory concentration): 0.064 µg/mL (≈ 0.152 µM)
- MIC (clinical N. gonorrhoeae isolate 82, Sweden 2023, read-out: Minimum inhibitory concentration): 0.032 µg/mL (≈ 0.0761 µM)
- MIC (clinical N. gonorrhoeae isolate 83, Sweden 2023, read-out: Minimum inhibitory concentration): 0.064 µg/mL (≈ 0.152 µM)
- MIC (clinical N. gonorrhoeae isolate 84, Sweden 2023, read-out: Minimum inhibitory concentration): 0.064 µg/mL (≈ 0.152 µM)
- MIC (clinical N. gonorrhoeae isolate 85, Sweden 2023, read-out: Minimum inhibitory concentration): 0.008 µg/mL (≈ 0.019 µM)
- MIC (clinical N. gonorrhoeae isolate 86, Sweden 2023, read-out: Minimum inhibitory concentration): 0.032 µg/mL (≈ 0.0761 µM)
- MIC (clinical N. gonorrhoeae isolate 87, Sweden 2023, read-out: Minimum inhibitory concentration): 0.016 µg/mL (≈ 0.0381 µM)
- MIC (clinical N. gonorrhoeae isolate 88, Sweden 2023, read-out: Minimum inhibitory concentration): 0.064 µg/mL (≈ 0.152 µM)
- MIC (clinical N. gonorrhoeae isolate 89, Sweden 2023, read-out: Minimum inhibitory concentration): 0.032 µg/mL (≈ 0.0761 µM)
- MIC (clinical N. gonorrhoeae isolate 90, Sweden 2023, read-out: Minimum inhibitory concentration): 0.125 µg/mL (≈ 0.297 µM)
- MIC (clinical N. gonorrhoeae isolate 91, Sweden 2023, read-out: Minimum inhibitory concentration): 0.032 µg/mL (≈ 0.0761 µM)
- MIC (clinical N. gonorrhoeae isolate 92, Sweden 2023, read-out: Minimum inhibitory concentration): 0.016 µg/mL (≈ 0.0381 µM)
- MIC (clinical N. gonorrhoeae isolate 93, Sweden 2023, read-out: Minimum inhibitory concentration): 0.125 µg/mL (≈ 0.297 µM)
- MIC (clinical N. gonorrhoeae isolate 94, Sweden 2023, read-out: Minimum inhibitory concentration): 0.064 µg/mL (≈ 0.152 µM)
- MIC (clinical N. gonorrhoeae isolate 95, Sweden 2023, read-out: Minimum inhibitory concentration): 0.064 µg/mL (≈ 0.152 µM)
- MIC (clinical N. gonorrhoeae isolate 96, Sweden 2023, read-out: Minimum inhibitory concentration): 0.032 µg/mL (≈ 0.0761 µM)
- MIC (clinical N. gonorrhoeae isolate 97, Sweden 2023, read-out: Minimum inhibitory concentration): 0.064 µg/mL (≈ 0.152 µM)
- MIC (clinical N. gonorrhoeae isolate 98, Sweden 2023, read-out: Minimum inhibitory concentration): 0.064 µg/mL (≈ 0.152 µM)
- MIC (clinical N. gonorrhoeae isolate 99, Sweden 2023, read-out: Minimum inhibitory concentration): 0.008 µg/mL (≈ 0.019 µM)
- MIC (clinical N. gonorrhoeae isolate 100, Sweden 2023, read-out: Minimum inhibitory concentration): 0.008 µg/mL (≈ 0.019 µM)
- MIC (read-out: MIC relevant for mutant selection assay, WHO Z): 0.125 µg/mL (≈ 0.297 µM)
- MIC (screening panel N. gonorrhoeae isolate A, read-out: Minimum inhibitory concentration): 0.06 µg/mL (≈ 0.143 µM)
- MIC (screening panel N. gonorrhoeae isolate B, read-out: Minimum inhibitory concentration): 0.03 µg/mL (≈ 0.0713 µM)
- MIC (screening panel N. gonorrhoeae isolate C, read-out: Minimum inhibitory concentration): 0.03 µg/mL (≈ 0.0713 µM)
- MIC (screening panel N. gonorrhoeae isolate D, read-out: Minimum inhibitory concentration): 0.03 µg/mL (≈ 0.0713 µM)
- MIC (screening panel N. gonorrhoeae isolate E, read-out: Minimum inhibitory concentration): 0.03 µg/mL (≈ 0.0713 µM)
- MIC (screening panel N. gonorrhoeae isolate F, read-out: Minimum inhibitory concentration): 0.125 µg/mL (≈ 0.297 µM)
- MIC (screening panel N. gonorrhoeae isolate G, read-out: Minimum inhibitory concentration): 0.125 µg/mL (≈ 0.297 µM)
- MIC (screening panel N. gonorrhoeae isolate H, read-out: Minimum inhibitory concentration): 0.06 µg/mL (≈ 0.143 µM)
- MIC (screening panel N. gonorrhoeae isolate I, read-out: Minimum inhibitory concentration): 0.03 µg/mL (≈ 0.0713 µM)
